Assay results as given in PMC5557574 (Critical Care, 2017).
Like-named read-outs stand apart in the source and are kept apart here. Positions of bridges follow the written chain, without caps; N, C: chain ends. Non-standard residues stand in square brackets, D forms with d. Residues, ends and D or L forms follow the SMILES beside them. Orn(iPr) = CC(C)NCCC[C@H](N)C(=O)O; Aad = N[C@@H](CCCC(=O)O)C(=O)O

How the values were obtained:
healthy subjects = system: healthy subjects; parameters: method as in Ferring Pharmaceuticals A/S, unpublished data; settings: 30 healthy subjects, infusion rates up to 3.0 ng/kg/minute for 6 h; ref Ferring Pharmaceuticals A/S, unpublished data; cited from earlier work
patients = settings: 30 patients, infusion rates of 3.75 ng/kg/minute and higher; ref Ferring Pharmaceuticals A/S, unpublished data; cited from earlier work
[1] = parameters: method as in Ferring Pharmaceuticals, unpublished data; settings: healthy subjects; ref Ferring Pharmaceuticals, unpublished data; cited from earlier work
[2] = cited from earlier work
[3] = system: patients in early septic shock; assay: Safety: treatment-emergent adverse events in the phase IIa trial; type: in vivo, human
Protocol: Secondary endpoints included pharmacodynamics, pharmacokinetics, safety (vital signs, central venous pressure, central venous oxygen saturation, electrocardiographic and cardiac function, respiratory function, clinical chemistry, hematology, hemostasis, and urinalysis), organ dysfunction, an indirect measure of vascular leakage (i.e., fluid balance), and morbidity. Treatment-emergent adverse events (occurrence from start of study drug to 48 h after infusion was stopped) were collated and evaluated. Morbidity and organ dysfunction were evaluated by time course of Sequential Organ Failure Assessment (SOFA) scores; days alive and free of organ dysfunction (using SOFA); proportion of patients off all vasopressors; days alive and out of intensive care unit (ICU); days alive and free of vasopressors; corticosteroids for sepsis treatment, dialysis, or mechanical ventilation at days 7, 14, and 28; ICU and hospital (up to day 28) lengths of stay; and plasma C-reactive protein (CRP), tumor necrosis factor (TNF)-α, interleukin (IL)-6, IL-10, and IL-1ra levels.

[4] = Pharmacokinetics in septic shock patients, two-compartment population pharmacokinetic model; type: in vivo, human; settings: for Initial elimination half-life / Time to steady state / clearance / Vd / half-life: mean (SD), SD; for clearance / Vd / half-life: human, in vivo, intravenous; for clearance: read-out: Clearance (total systemic) (converted); for Vd: read-out: Steady state volume; for half-life: read-out: Terminal elimination half-life (converted)
Protocol: Because the study drug infusion was administered according to need, the pharmacokinetic parameters steady-state concentration, total systemic clearance, distribution volume at steady state, and half-life were calculated by modeling using a two-compartment population pharmacokinetic model with random subject effects on clearance and distribution volume using WinNonlin®Pro (Pharsight Corp., Cary, NC, USA). Actual blood sampling time points were used for the calculations.
Data are generated by modelling the concentration data available from all subjects. Mean (SD)

[5] = Selepressin 2.5 ng/kg/minute (n = 19), possibly or probably related
[6] = Selepressin 3.75 ng/kg/minute (n = 2), possibly or probably related

For `CC[C@H](C)[C@@H]1NC(=O)[C@H](Cc2ccccc2)NC(=O)[C@@H](N)CSSC[C@@H](C(=O)N2CCC[C@H]2C(=O)N[C@@H](CCCNC(C)C)C(=O)NCC(N)=O)NC(=O)[C@H](CC(N)=O)NC(=O)[C@H](CCCC(N)=O)NC1=O` [selepressin] (H-CFI[Aad](NH2)NCP[Orn(iPr)]G-NH2; disulfide 1-6), the Safety and tolerability (healthy subjects) is given as “safe and well tolerated”, the Safety (patients) is given as “did not raise any safety concerns” and the Terminal half-life [1] is given as 1.5 h. For the same compound, the “Half-life (qualitative, compared with vasopressin and terlipressin)” value [2] was “intermediate”, the “Any severe TEAE: E (events)” value ([3]; 1.25 ng/kg.min N=10) was 8 and the “Any severe TEAE: N (%)” value ([3]; 1.25 ng/kg.min N=10) was 3 (30). The “Severe TEAE Acute respiratory distress syndrome: E (events)” value ([3]; 1.25 ng/kg.min N=10) was 1, the “Severe TEAE Acute respiratory distress syndrome: N (%)” value ([3]; 1.25 ng/kg.min N=10) was 1 (10) and the “Severe TEAE Ascites: E (events)” value ([3]; 1.25 ng/kg.min N=10) was 1. The “Severe TEAE Ascites: N (%)” value ([3]; 1.25 ng/kg.min N=10) was 1 (10), the “Severe TEAE Cerebral hemorrhage: E (events)” value ([3]; 1.25 ng/kg.min N=10) was 1 and the “Severe TEAE Cerebral hemorrhage: N (%)” value ([3]; 1.25 ng/kg.min N=10) was 1 (10). The “Severe TEAE Disseminated intravascular coagulation: E (events)” value ([3]; 1.25 ng/kg.min N=10) was 1, the “Severe TEAE Disseminated intravascular coagulation: N (%)” value ([3]; 1.25 ng/kg.min N=10) was 1 (10) and the “Severe TEAE Hepatic failure: E (events)” value ([3]; 1.25 ng/kg.min N=10) was 1. The “Severe TEAE Hepatic failure: N (%)” value ([3]; 1.25 ng/kg.min N=10) was 1 (10), the “Severe TEAE Hyperkalemia: E (events)” value ([3]; 1.25 ng/kg.min N=10) was 1 and the “Severe TEAE Hyperkalemia: N (%)” value ([3]; 1.25 ng/kg.min N=10) was 1 (10). The “Severe TEAE Mechanical ventilation complication: E (events)” value ([3]; 1.25 ng/kg.min N=10) was 1, the “Severe TEAE Mechanical ventilation complication: N (%)” value ([3]; 1.25 ng/kg.min N=10) was 1 (10) and the “Severe TEAE Oliguria: E (events)” value ([3]; 1.25 ng/kg.min N=10) was 1. For the same compound, the “Severe TEAE Oliguria: N (%)” value ([3]; 1.25 ng/kg.min N=10) was 1 (10), the “Any severe TEAE: E (events)” value ([3]; 2.5 ng/kg.min N=19) was 6 and the “Any severe TEAE: N (%)” value ([3]; 2.5 ng/kg.min N=19) was 4 (21). The “Severe TEAE Myocarditis: E (events)” value ([3]; 2.5 ng/kg.min N=19) was 1, the “Severe TEAE Myocarditis: N (%)” value ([3]; 2.5 ng/kg.min N=19) was 1 (5) and the “Severe TEAE Peripheral ischemia: E (events)” value ([3]; 2.5 ng/kg.min N=19) was 1. The “Severe TEAE Peripheral ischemia: N (%)” value ([3]; 2.5 ng/kg.min N=19) was 1 (5), the “Severe TEAE Pneumothorax: E (events)” value ([3]; 2.5 ng/kg.min N=19) was 1 and the “Severe TEAE Pneumothorax: N (%)” value ([3]; 2.5 ng/kg.min N=19) was 1 (5). For the same compound, the “Severe TEAE Respiratory distress: E (events)” value ([3]; 2.5 ng/kg.min N=19) was 2, the “Severe TEAE Respiratory distress: N (%)” value ([3]; 2.5 ng/kg.min N=19) was 2 (11) and the “Severe TEAE Urinary bladder hemorrhage: E (events)” value ([3]; 2.5 ng/kg.min N=19) was 1. The “Severe TEAE Urinary bladder hemorrhage: N (%)” value ([3]; 2.5 ng/kg.min N=19) was 1 (5), the “Adverse drug reactions judged as serious” value ([3]; 2.5 ng/kg/minute group, one patient) was “myocarditis and peripheral ischemia” and the “Any severe TEAE: E (events)” value ([3]; 3.75 ng/kg.min N=2) was 2. For the same compound, the “Any severe TEAE: N (%)” value ([3]; 3.75 ng/kg.min N=2) was 2 (100), the “Severe TEAE Cardio-respiratory arrest: E (events)” value ([3]; 3.75 ng/kg.min N=2) was 1 and the “Severe TEAE Cardio-respiratory arrest: N (%)” value ([3]; 3.75 ng/kg.min N=2) was 1 (50). For the same compound, the “Severe TEAE Myocardial ischemia: E (events)” value ([3]; 3.75 ng/kg.min N=2) was 1, the “Severe TEAE Myocardial ischemia: N (%)” value ([3]; 3.75 ng/kg.min N=2) was 1 (50) and the “Adverse drug reactions judged as serious” value ([3]; 3.75 ng/kg/minute group) was “myocardial ischemia”. The “Cyanosis, treatment-related adverse drug reaction: No. of subjects (%)” value [3, 5] was 1 (5), the “Cyanosis, treatment-related adverse drug reaction: events” value [3, 5] was 1 and the “Hypertension, treatment-related adverse drug reaction: No. of subjects (%)” value [3, 5] was 2 (11). For the same compound, the “Hypertension, treatment-related adverse drug reaction: events” value [3, 5] was 2, the “Myocarditis, treatment-related adverse drug reaction: No. of subjects (%)” value [3, 5] was 1 (5) and the “Myocarditis, treatment-related adverse drug reaction: events” value [3, 5] was 1. The “Peripheral ischemia, treatment-related adverse drug reaction: No. of subjects (%)” value [3, 5] was 1 (5), the “Peripheral ischemia, treatment-related adverse drug reaction: events” value [3, 5] was 1 and the “Myocardial ischemia, treatment-related adverse drug reaction: No. of subjects (%)” value [3, 6] was 1 (50). The “Myocardial ischemia, treatment-related adverse drug reaction: events” value [3, 6] was 1, the Tolerability ([3]; selepressin 2.5 ng/kg/minute, septic shock patients) was “well tolerated” and the “Tolerability (treatment-emergent adverse events vs placebo)” value ([3]; selepressin dose groups, septic shock patients) was “well tolerated”. The “Deaths related to ischemic event(s) attributable to selepressin” value ([3]; septic shock patients, all dose groups) was “no deaths”, the “Initial distribution/elimination phase half-life” value [4] was “approximately 10 minutes” and the Initial elimination half-life ([4]; 1.25 ng/kg.min, N=10, modelled) was 0.18 (0.09) h. For the same compound, the “Time to steady state” value ([4]; 1.25 ng/kg.min, N=10, modelled) was 7.6 (2.8) h, the Initial elimination half-life ([4]; 2.5 ng/kg.min, N=17, modelled) was 0.17 (0.06) h and the “Time to steady state” value ([4]; 2.5 ng/kg.min, N=17, modelled) was 7.0 (2.3) h. The Terminal half-life ([4]; both dose groups) was 2.5 h, the “Time to steady-state concentration” value ([4]; both infusion rates (1.25 and 2.5)) was “approximately 7 h” and the clearance ([4]; 1.25 ng/kg.min, N=10, modelled) was 167 mL/min. The Vd ([4]; 1.25 ng/kg.min, N=10, modelled) was 25.5 L, the half-life ([4]; 1.25 ng/kg.min, N=10, modelled) was 2.5 h and the clearance ([4]; 2.5 ng/kg.min, N=17, modelled) was 218 mL/min. The Vd ([4]; 2.5 ng/kg.min, N=17, modelled) was 31.2 L and the half-life ([4]; 2.5 ng/kg.min, N=17, modelled) was 2.7 h.
In the case of terlipressin [reference compound], the “Half-life (qualitative)” value ([2]; in vivo) is listed as “long half-life”.
